# Results from patent publication US11267808B2, “Benzamide derivatives as PPAR-gamma modulators” (MEDIBIOFARMA, S.L., priority 2017, dated 2022).
# Molecular target: Human PPAR-gamma (Homo sapiens (Human), UniProt P37231)
# Experiment: Human PPAR-gamma (h) (agonist radioligand) binding assay
# Settings: inhibition of radioligand specific binding; class ranges defined in μM
# Method: The compounds of the present invention were assayed for binding to the Human PPAR-gamma (h) (agonist radioligand) Assay and were tested at several concentrations for IC50 determination.
# Compound binding was calculated as a % inhibition of the binding of a radioactively labelled ligand specific for each target, as described in (FERRY, Gilles, et al. Binding of prostaglandins to human PPARγ: tool assessment and new natural ligands. European journal of pharmacology, 2001, vol. 417, no 1, p. 77-89).
# The IC50 values (concentration causing a half-maximal inhibition of control specific binding) was determined by non-linear regression analysis of the competition curves generated with mean replicate values using Hill equation curve fitting
# where Y=specific binding, A=left asymptote of the curve, D=right asymptote of the curve, C=compound concentration, C50=IC50, and nH=slope factor. This analysis was performed using software developed at EUROFINS Cerep Company (Hill software) and validated by comparison with data generated by the commercial software SigmaPlot® 4.0 for Windows® (© 1997 by SPSS Inc.).
# Sequence of Human PPAR-gamma (P37231 whole entry): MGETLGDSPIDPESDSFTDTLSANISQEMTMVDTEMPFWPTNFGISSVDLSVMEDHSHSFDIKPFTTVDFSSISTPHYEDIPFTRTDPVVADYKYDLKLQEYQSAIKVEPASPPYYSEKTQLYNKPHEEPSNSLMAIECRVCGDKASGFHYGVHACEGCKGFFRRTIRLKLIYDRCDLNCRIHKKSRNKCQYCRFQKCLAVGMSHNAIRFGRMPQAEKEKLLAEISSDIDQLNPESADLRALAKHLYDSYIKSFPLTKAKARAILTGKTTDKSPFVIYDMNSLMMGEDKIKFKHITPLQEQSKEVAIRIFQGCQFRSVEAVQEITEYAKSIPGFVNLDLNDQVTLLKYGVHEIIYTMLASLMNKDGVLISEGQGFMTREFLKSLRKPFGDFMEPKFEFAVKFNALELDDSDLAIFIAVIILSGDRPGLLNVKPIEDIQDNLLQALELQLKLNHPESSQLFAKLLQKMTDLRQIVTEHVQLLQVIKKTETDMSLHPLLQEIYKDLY
row,IC50,Structure (SMILES)
1,1 to 50 µM,"N#Cc1ccc(Cl)c(C(=O)Nc2ccc(-c3ccncc3)nc2)c1 [Example 7, N-([2,4′-bipyridin]-5-yl)-2-chloro-5-cyanobenzamide]"
2,< 0.2 µM,"N#Cc1ccc(F)c(C(=O)Nc2ccc(-c3ccc(F)cc3)nc2)c1 [Example 10, 5-cyano-2-fluoro-N-(6-(4-fluorophenyl)pyridin-3-yl)benzamide]"
3,1 to 50 µM,"CN1CCN(c2ccc(NC(=O)c3cc(C#N)ccc3Cl)cn2)CC1 [Example 14, 2-chloro-5-cyano-N-(6-(4-methylpiperazin-1-yl)pyridin-3-yl)benzamide]"
4,< 0.2 µM,"N#Cc1ccc(Cl)c(C(=O)Nc2ccc(-c3ccc(F)cc3)nc2)c1 [Example 4, 2-chloro-5-cyano-N-(6-(4-fluorophenyl)pyridin-3-yl)benzamide]"
5,< 0.2 µM,"N#Cc1ccc(Cl)c(C(=O)Nc2ccnc(-c3ccccc3)c2)c1 [Example 1, 2-chloro-5-cyano-N-(2-phenylpyridin-4-yl)benzamide]"
6,1 to 50 µM,"N#Cc1ccc(Cl)c(C(=O)Nc2ccc(N3CCOCC3)nc2)c1 [Example 17, 2-chloro-5-cyano-N-(6-morpholinopyridin-3-yl)benzamide]"
7,1 to 50 µM,"N#Cc1ccc(Cl)c(C(=O)Nc2ccnc(-c3cccnc3)c2)c1 [Example 6, N-([2,3′-bipyridin]-4-yl)-2-chloro-5-cyanobenzamide]"
8,< 0.2 µM,"N#Cc1ccc(Cl)c(C(=O)Nc2ccc(-c3ccccc3)nc2)c1 [Example 2, 2-chloro-5-cyano-N-(6-phenylpyridin-3-yl)benzamide]"
9,≥ 50 µM,"CN1CCN(c2cc(NC(=O)c3cc(C#N)ccc3Cl)ccn2)CC1 [Example 15, 2-chloro-5-cyano-N-(2-(4-methylpiperazin-1-yl)pyridin-4-yl)benzamide]"
10,< 0.2 µM,"N#Cc1ccc(Cl)c(C(=O)Nc2ccc(-c3cccnc3)nc2)c1 [Example 5, N-([2,3′-bipyridin]-5-yl)-2-chloro-5-cyanobenzamide]"
11,< 0.2 µM,"N#Cc1ccc(Cl)c(C(=O)Nc2ccc(-c3ccccn3)nc2)c1 [Example 13, N-([2,2′-bipyridin]-5-yl)-2-chloro-5-cyanobenzamide]"
12,< 0.2 µM,"N#Cc1ccc(F)c(C(=O)Nc2ccc(-c3cccnc3)nc2)c1 [Example 9, N-([2,3′-bipyridin]-5-yl)-5-cyano-2-fluorobenzamide]"
13,1 to 50 µM,"N#Cc1ccc(Cl)c(C(=O)Nc2ccnc(N3CCOCC3)c2)c1 [Example 16, 2-chloro-5-cyano-N-(2-morpholinopyridin-4-yl)benzamide]"
14,0.2 to 1 µM,"N#Cc1ccc(Cl)c(C(=O)Nc2ccnc(-c3ccc(F)cc3)c2)c1 [Example 3, 2-chloro-5-cyano-N-(2-(4-fluorophenyl)pyridin-4-yl)benzamide]"
